Reference: patent EP3884941A1, “INFLAMMASOME INHIBITORS AND USE THEREOF” (CENTRO DE INVESTIGACION PRINCIPE FELIPE, priority 2020, dated 2021)

Assays:
[1] = tested on: ASC specks in THP1-ASC-GFP cells; assay: ASC speck assay; format: cell-based, human; details: THP-1 ASC GFP, LPS 100 ng/mL + nigericin 10 µM; MM01 10 µM, VX-765 5 µM
Description: THP1-ASC-GFP cells were seeded at 1×10^6/ml the day prior to use in experiments on 35 mm glass-bottom culture dishes. The following day medium was replaced containing the indicated inhibitors or vehicle for 30 min. Cells were then primed with 100 ng/ml LPS for 3h and stimulated with 10 µM nigericin for 30 min. Samples were fixed in 4% paraformaldehyde (PFA) for 10 min at RT and washed several times. Coverslips were prepared in mounting medium plus DAPI and analyzed in a Leica SP8 confocal microscope.

NLRP3 inflammasome [2] = assay: human PBMCs cellular assay, LPS plus ATP; format: cell-based; details: IL-1β and LDH release; MM01 1, 5 or 10 µM (Figure 5E, 5F)
Description: Human peripheral blood mononuclear cells (PBMCs) are lymphocytes and monocytes. PBMCs were separated from the whole blood by a density gradient centrifugation method using Ficoll Histopaque. Purified PBMCs were plated in 24-well plates at 5000000 cells/well in free-serum RPMI medium. Cells were primed for 3 h with 10 ng/ml pure LPS followed by 4 h with compounds and 5 mM ATP. Supernatants were harvested and clarified by centrifugation at 1500 rpm at RT and cytokine and caspase-1 activation analysis was performed as previously described.

ASC oligomerization = ASC oligomerization assay (DSS crosslinking, immunoblotting); format: cell-based, human; details: crosslinked pellets, LPS plus nigericin; MM01 10 µM, VX-765 5 µM
Description: PMA-differentiated THP-1 cells were seeded at 1x10^6 cells/ml in 6-well plates. Cells were treated with compounds for 30 min, primed with 100 ng/ml LPS for 3h and then stimulated with 10 µM nigericin for 30 min. The supernatants were removed, cells were rinsed in ice-cold PBS and lysed in NP-40 buffer (20 mM HEPES-KOH pH 7.5, 150 mM KCL, 1% NP-40 plus protease inhibitors). Lysates were centrifuged at 330 × g for 10 min at 4 °C. The pellets were washed and resuspended in PBS plus 2 mM disuccinimidyl suberate (DSS) and incubated at RT for 30 min with rotation. Samples were then centrifuged at 330 × g for 10 min at 4 °C. The supernatant was removed, and the cross-linked pellets were resuspended in sample buffer, boiled and analyzed by immunoblotting.

NLRP3 inflammasome [3] = assay: inflammasome activation cellular assay, LPS plus nigericin, PMA-differentiated THP-1 cells; format: cell-based, human; details: MM01 10 µM
Description: The MM01 compound was evaluated in the THP-1, or PMA-differentiated THP-1 cells (50 nM PMA for 24h) stimulated with lipopolysaccharide (LPS) plus adenosine triphosphate (ATP) to stimulate ASC-dependent inflammasomes NLRP3. Briefly, 1x10^6 cells were seeded in 6-well plates in 1 mL RPMI media that contained 1% FBS. Cells were either mock-treated or primed with compounds at the indicated concentrations for 30 min, followed by treatment with 100 ng/mL LPS (Sigma) and 2.5 mM ATP (Sigma) for 6 h at 37°C. In the case of nigericin stimulation, cells were primed with LPS for 3h, and then 10 µM nigericin (Sigma) was added for 30 min. Supernatants were harvested and clarified by centrifugation at 1500 rpm at RT, and a cytokine analysis was performed. Both IL-1β secretion and the release of IL-18were monitored by an ELISA assay (BD OptEIA™ Human IL-1β ELISA Kit and Human IL-18 Module Set eBioscience) following the manufacturer's instructions. Cell viability was analyzed in parallel by evaluating the release of lactate dehydrogenase (LDH) according to a commercial kit (CytoTox-ONE™ Homogeneous Membrane Integrity Assay; Promega). The release of LDH was calculated using the formula: the release of LDH (%) = 100x (Abs490 treated -Abs490 untreated cells)/ Abs490 untreated cells lysed with Triton 9% (maximum release of LDH).
The supernatants of the treated cells were precipitated by the chloroform-methanol method. Pellets were obtained by lysing cells in 25 mM of Tris-HCI pH 7.4, 1 mM EDTA, 1 mM EGTA and 1% SDS, plus protease and phosphatase inhibitors. The protein concentration was determined by the BCA protein assay. Samples were separated in a 14% SDS-PAGE gel, transferred to a nitrocellulose membrane and blocked with 5% skimmed milk for 1 h. Then the membrane was incubated overnight with primary antibodies: α-casp1 (1:1000; Cell Signaling 2225), α-IL-1β (1:1000; Acris R1130P), α-NLRP3 (1:1000; Cell Signaling 15101), α-tubulin (1:3000; Abcam ab6160) at 4°C. […]

caspase-9 = target: T1, caspase-9 (Homo sapiens, UniProt P55211); assay: caspase-9 activity assay (Na-citrate pre-activated); format: biochemical; details: recombinant caspase-9; MM01 5 µM (Figure 2B)
T1 sequence (P55211 1-416): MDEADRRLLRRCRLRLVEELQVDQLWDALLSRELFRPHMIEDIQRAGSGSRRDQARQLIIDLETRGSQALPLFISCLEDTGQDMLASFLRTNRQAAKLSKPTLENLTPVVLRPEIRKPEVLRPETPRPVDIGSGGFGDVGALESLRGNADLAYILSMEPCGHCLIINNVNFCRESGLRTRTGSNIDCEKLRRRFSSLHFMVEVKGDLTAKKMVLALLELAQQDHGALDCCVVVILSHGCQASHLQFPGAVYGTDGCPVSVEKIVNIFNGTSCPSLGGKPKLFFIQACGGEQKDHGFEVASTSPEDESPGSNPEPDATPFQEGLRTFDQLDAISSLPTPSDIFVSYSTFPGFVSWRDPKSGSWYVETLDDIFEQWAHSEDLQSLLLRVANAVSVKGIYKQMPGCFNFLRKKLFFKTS
Description: Caspase-9 was activated with kosmotropic salts, in particular with Na-citrate. Briefly, 5 µM caspase-9 was pre-activated for 20 min in SC buffer (50 mM Na2HPO4, 150 mM NaCl, 1.5% sucrose, 0.05% CHAPS, 10 mM DTT, 0.7 M Na-citrate, pH 7.4) at RT. Once pre-activated, the complete reaction was diluted to 100 nM caspase-9 in assay buffer without Na-Citrate and incubated 20 min at RT in the presence or absence of compounds. Enzyme activity was monitored by adding the Ac-LEHD-afc substrate (40 µM) using a Victor 2 spectrofluorimeter.

[4] = PMA-differentiated THP-1, LPS 100 ng/ml + nigericin 10 µM

## C=CCN1C(=O)/C(=C2/C(=O)Nc3ccccc32)SC1=S [MM01]
[1]
  ASC speck formation: inhibited
NLRP3 inflammasome [2]
  LPS/ATP stimulation of isolated human PBMCs: inhibits
ASC oligomerization
  ASC oligomerization: inhibited
NLRP3 inflammasome [3]; [4]
  IL-1β secretion: decreased
  IL-18 secretion: decreased
NLRP3 inflammasome [3]; PMA-differentiated THP-1, LPS + nigericin, LDH release
  pyroptotic cell death: decreased
caspase-9
  caspase-9 activity: do not act on
